Data from patent US20140024662A1, “COMPOUNDS, SCREENS, AND METHODS OF TREATMENT” (Shanghai Institute of Organic Chemistry, priority 2006, published 2014).
“Also recorded” adds a separate entry of the source. Read-outs that look alike come from different tables or passages of the source.

Test system: FADD-deficient Jurkat cells
Test: necroptosis assay: FADD-deficient Jurkat cells treated with TNFα, cell viability
Format: cell-based, human
Settings: for activity in the necroptosis assay, in words / Max Prot: FADD-deficient Jurkat cells treated with TNFα; for EC50: effective concentration for half-maximum response, inhibition of necroptosis in FADD-deficient Jurkat cells treated with TNFα; for Max Prot: max viability obtained in the presence of a compound; call rule not given here
Description: Herein we describe the structure activity analysis of Nec-5 analogs.

SMILES	EC50	EC50 (read-out: EC50)	Max Prot	further results
CCCc1sc2nc(SCC#N)n(-c3ccc(OC)cc3)c(=O)c2c1C [Compound 69]	inactive			activity in the necroptosis assay, in words: inactive
COc1ccc(-n2c(SCC#N)nc3sc(C(C)C)c(C)c3c2=O)cc1 [Compound 70]	inactive			activity in the necroptosis assay, in words: inactive
CCCCCCCCCCCCCCc1sc2nc(SCC#N)n(-c3ccc(OC)cc3)c(=O)c2c1C [Compound 71]	inactive			
CCc1c(C)sc2nc(SCC#N)n(-c3ccc(OC)cc3)c(=O)c12 [Compound 72]		1080 nM	100%	activity in the necroptosis assay, in words: preserved activity to a significant extent
COc1ccc(-n2c(SCC#N)nc3sc4c(c3c2=O)CCC4)cc1 [Compound 73]		450 nM	100%	activity in the necroptosis assay, in words: retained most of the activity; also recorded: showed activity; also recorded: exhibited a certain degree of activity
COc1ccc(-n2c(SCC#N)nc3sc4c(c3c2=O)CCCCC4)cc1 [Compound 74]		960 nM	83%	activity in the necroptosis assay, in words: less active; also recorded: exhibited a certain degree of activity
COc1ccc(-n2c(SCC#N)nc3sc4ccccc4c3c2=O)cc1 [Compound 76]		180 nM	83.3%	activity in the necroptosis assay, in words: retained most of the activity; also recorded: showed substantial activity; also recorded: showed good activity; also recorded: potent inhibitor; also recorded: exhibited a certain degree of activity
CCN1CCc2c(sc3nc(SCC#N)n(-c4ccc(OC)cc4)c(=O)c23)C1 [Compound 77]	inactive			activity in the necroptosis assay, in words: essentially inactive
COc1ccc(-n2c(SCC#N)nc3sc4c(c3c2=O)CCN(C(C)C)C4)cc1 [Compound 78]	inactive			activity in the necroptosis assay, in words: essentially inactive
COc1ccc(-n2c(SC)nc3sccc3c2=O)cc1 [Compound 79]	inactive			
COc1ccc(-n2c(SC)nc3scc(C)c3c2=O)cc1 [Compound 80]	inactive			
COc1ccc(-n2c(SC)nc3sc(C)c(C)c3c2=O)cc1 [Compound 81]	inactive			
CCc1c(C)sc2nc(SC)n(-c3ccc(OC)cc3)c(=O)c12 [Compound 82]	inactive			
CCc1sc2nc(SC)n(-c3ccc(OC)cc3)c(=O)c2c1C [Compound 83]	inactive			
CCCc1sc2nc(SC)n(-c3ccc(OC)cc3)c(=O)c2c1C [Compound 84]	inactive			
COc1ccc(-n2c(SC)nc3sc(C(C)C)c(C)c3c2=O)cc1 [Compound 85]	inactive			
CCCCCCCCCCCCCCc1sc2nc(SC)n(-c3ccc(OC)cc3)c(=O)c2c1C [Compound 86]	inactive			
COc1ccc(-n2c(SC)nc3sc4c(c3c2=O)CCC4)cc1 [Compound 87]		240 nM	97.0%	activity in the necroptosis assay, in words: displayed higher activity than each change separately enacted
COc1ccc(-n2c(SC)nc3sc4c(c3c2=O)CCCCC4)cc1 [Compound 88]	inactive			activity in the necroptosis assay, in words: lack of activity
COc1ccc(-n2c(SC)nc3sc4ccccc4c3c2=O)cc1 [Compound 90]		240 nM	77%	activity in the necroptosis assay, in words: potent inhibitor
CCN1CCc2c(sc3nc(SC)n(-c4ccc(OC)cc4)c(=O)c23)C1 [Compound 91]	inactive			
COc1ccc(-n2c(SC)nc3sc4c(c3c2=O)CCN(C(C)C)C4)cc1 [Compound 92]	inactive			
CCSc1nc2sc3c(c2c(=O)n1-c1ccc(OC)cc1)CCC3 [Compound 93]	inactive			

SMILES	EC50	EC50 (read-out: EC50)	Max Prot	further results
CCCSc1nc2sc3c(c2c(=O)n1-c1ccc(OC)cc1)CCC3 [Compound 94]	inactive			
CCCCSc1nc2sc3c(c2c(=O)n1-c1ccc(OC)cc1)CCC3 [Compound 95]	inactive			
CCCCCSc1nc2sc3c(c2c(=O)n1-c1ccc(OC)cc1)CCC3 [Compound 96]	inactive			
C=CCSc1nc2sc3c(c2c(=O)n1-c1ccc(OC)cc1)CCC3 [Compound 97]	inactive			
C#CCSc1nc2sc3c(c2c(=O)n1-c1ccc(OC)cc1)CCC3 [Compound 98]		2490 nM	63.4%	
COc1ccc(-n2c(SCc3ccccc3)nc3sc4c(c3c2=O)CCC4)cc1 [Compound 99]	inactive			
COc1ccc(-n2c(SCc3ccc([N+](=O)[O-])cc3)nc3sc4c(c3c2=O)CCC4)cc1 [Compound 100]	inactive			
COc1ccc(-n2c(SCC(C)=O)nc3sc4c(c3c2=O)CCC4)cc1 [Compound 101]	inactive			
COc1ccc(-n2c(SC[N+](=O)[O-])nc3sc4c(c3c2=O)CCC4)cc1 [Compound 102]	inactive			
COc1ccc(-n2c(SCCO)nc3sc4c(c3c2=O)CCC4)cc1 [Compound 103]		7140 nM	100%	
C#CCSc1nc2sccc2c(=O)n1-c1ccc(OC)cc1 [Compound 104]	inactive			
C#CCSc1nc2scc(C)c2c(=O)n1-c1ccc(OC)cc1 [Compound 105]	inactive			
C#CCSc1nc2sc(C)c(C)c2c(=O)n1-c1ccc(OC)cc1 [Compound 106]		4860 nM	90.3%	activity in the necroptosis assay, in words: possess some activity
C#CCSc1nc2sc(CC)c(C)c2c(=O)n1-c1ccc(OC)cc1 [Compound 107]	inactive			
C#CCSc1nc2sc(CCC)c(C)c2c(=O)n1-c1ccc(OC)cc1 [Compound 108]	inactive			
C#CCSc1nc2sc3c(c2c(=O)n1-c1ccc(OC)cc1)CCCCC3 [Compound 109]	inactive			
CCSc1nc2sc(C)c(C)c2c(=O)n1-c1ccc(OC)cc1 [Compound 110]	inactive			activity in the necroptosis assay, in words: inactive
CCSc1nc2sc(CC)c(C)c2c(=O)n1-c1ccc(OC)cc1 [Compound 111]	inactive			
CCSc1nc2sc3c(c2c(=O)n1-c1ccc(OC)cc1)CCCCC3 [Compound 112]	inactive			
COc1ccc(-n2c(SCCC#N)nc3sc(C)c(C)c3c2=O)cc1 [Compound 113]	inactive			
COc1ccc(-n2c(SCCO)nc3sc(C)c(C)c3c2=O)cc1 [Compound 114]		7260 nM	78%	activity in the necroptosis assay, in words: possess some activity
CCc1sc2nc(SCCO)n(-c3ccc(OC)cc3)c(=O)c2c1C [Compound 115]	inactive			
CCCc1sc2nc(SCCO)n(-c3ccc(OC)cc3)c(=O)c2c1C [Compound 116]	inactive			

SMILES	EC50	EC50 (read-out: EC50)	Max Prot	further results
CCCc1sc2nc(SCC)n(-c3ccc(OC)cc3)c(=O)c2c1C [Compound 117]	inactive			
COc1ccc(-n2c(SCC(=O)O)nc3sc(C)c(C)c3c2=O)cc1 [Compound 118]	inactive			
Cc1sc2nc(SCC#N)n(-c3ccc(F)cc3)c(=O)c2c1C [Compound 119]		4430 nM	87.6%	
CCc1sc2nc(SCC#N)n(-c3ccc(F)cc3)c(=O)c2c1C [Compound 120]	inactive			
N#CCSc1nc2sc3c(c2c(=O)n1-c1ccc(F)cc1)CCC3 [Compound 121]		890 nM	88.7%	
N#CCSc1nc2sc3c(c2c(=O)n1-c1ccc(F)cc1)CCCCC3 [Compound 122]	inactive			activity in the necroptosis assay, in words: completely lacked activity
CSc1nc2sc(C)c(C)c2c(=O)n1-c1ccc(F)cc1 [Compound 123]		2600 nM	69.2%	
CCc1sc2nc(SC)n(-c3ccc(F)cc3)c(=O)c2c1C [Compound 124]	inactive			
CSc1nc2sc3c(c2c(=O)n1-c1ccc(F)cc1)CCC3 [Compound 125]		3000 nM	95%	
Cc1sc2nc(SCC#N)n(-c3ccc4c(c3)OCO4)c(=O)c2c1C [Compound 127]		1650 nM	100%	
CCc1c(C)sc2nc(SCC#N)n(-c3ccc4c(c3)OCO4)c(=O)c12 [Compound 128]		1900 nM	100%	
N#CCSc1nc2sc3c(c2c(=O)n1-c1ccc2c(c1)OCO2)CCC3 [Compound 129]		1180 nM	100%	
CSc1nc2sc(C)c(C)c2c(=O)n1-c1ccc2c(c1)OCO2 [Compound 130]		1110 nM	67.0%	
CCc1c(C)sc2nc(SC)n(-c3ccc4c(c3)OCO4)c(=O)c12 [Compound 131]	inactive			activity in the necroptosis assay, in words: inactive
CSc1nc2sc3c(c2c(=O)n1-c1ccc2c(c1)OCO2)CCC3 [Compound 132]	inactive			activity in the necroptosis assay, in words: inactive
N#CCSc1nc2sc3c(c2c(=O)n1-c1ccc2c(c1)OCCO2)CCC3 [Compound 133]		250 nM	100%	
N#CCSc1nc2sc3c(c2c(=O)n1-c1ccc2c(c1)OCCO2)CCCC3 [Compound 134]		220 nM	100%	
N#CCSc1nc2sc3ccccc3c2c(=O)n1-c1ccc2c(c1)OCCO2 [Compound 135]		150 nM	100%	increase in activity versus para-methoxy (R5 ethylene dioxy compared with para-methoxy): ~2 fold
Cc1sc2nc(SCC#N)n(-c3ccc4c(c3)OCCO4)c(=O)c2c1C [Compound 136]		250 nM	100%	
Cc1ccc(-n2c(SCC#N)nc3sc(C)c(C)c3c2=O)cc1C [Compound 137]		2790 nM	90.7%	activity in the necroptosis assay, in words: showed higher activity than compound (43)
Cc1ccc(-n2c(SCC#N)nc3sc4c(c3c2=O)CCC4)cc1C [Compound 139]	inactive			activity in the necroptosis assay, in words: essentially inactive
CSc1nc2sc(C)c(C)c2c(=O)n1-c1ccc(C)c(C)c1 [Compound 140]	inactive			
